Source: PubChem BioAssay (NCI)
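Grown in 96-well plates, cells were treated for 48 hours with each compound at five concentrations. Insufficient inhibition: endpoint recorded as highest concentration tested. TGI denotes the concentration required for complete inhibition of growth.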

How the values were obtained:
Test in all cases: NCI tumour cell line growth inhibition, 48 h
ACHN renal = tested on: ACHN renal
OVCAR-4 ovarian = tested on: OVCAR-4 ovarian
KM12 colon = tested on: KM12 colon
LOX IMVI melanoma = tested on: LOX IMVI melanoma
M19-MEL melanoma = tested on: M19-MEL melanoma
SN12C renal = tested on: SN12C renal
NCI-H23 lung = tested on: NCI-H23 lung
NCI-H522 lung = tested on: NCI-H522 lung
HL-60(TB) leukemia = tested on: HL-60(TB) leukemia
A549 NSCLC = tested on: A549 NSCLC
KM20L2 colon = tested on: KM20L2 colon
SK-MEL-28 melanoma = tested on: SK-MEL-28 melanoma
RPMI-8226 leukemia = tested on: RPMI-8226 leukemia
DMS 114 small cell lung = tested on: DMS 114 small cell lung
786-0 renal = tested on: 786-0 renal
SF-295 CNS = tested on: SF-295 CNS
MOLT-4 leukemia = tested on: MOLT-4 leukemia
HCC-2998 colon = tested on: HCC-2998 colon
U251 CNS = tested on: U251 CNS
HCT-116 colon = tested on: HCT-116 colon
NCI-H460 lung = tested on: NCI-H460 lung
HT29 colon = tested on: HT29 colon
HOP-62 NSCLC = tested on: HOP-62 NSCLC
IGROV1 ovarian = tested on: IGROV1 ovarian
HCT-15 colon = tested on: HCT-15 colon
M14 melanoma = tested on: M14 melanoma
K-562 leukemia = tested on: K-562 leukemia
UACC-257 melanoma = tested on: UACC-257 melanoma
EKVX NSCLC = tested on: EKVX NSCLC
SF-539 CNS = tested on: SF-539 CNS
OVCAR-3 ovarian = tested on: OVCAR-3 ovarian
A498 renal = tested on: A498 renal
CCRF-CEM leukemia = tested on: CCRF-CEM leukemia
SK-OV-3 ovarian = tested on: SK-OV-3 ovarian
SK-MEL-2 melanoma = tested on: SK-MEL-2 melanoma
SR leukemia = tested on: SR leukemia
SNB-78 CNS = tested on: SNB-78 CNS
OVCAR-5 ovarian = tested on: OVCAR-5 ovarian
SK-MEL-5 melanoma = tested on: SK-MEL-5 melanoma
MALME-3M melanoma = tested on: MALME-3M melanoma
UACC-62 melanoma = tested on: UACC-62 melanoma
SW-620 colon = tested on: SW-620 colon
XF 498 CNS = tested on: XF 498 CNS
CAKI-1 renal = tested on: CAKI-1 renal
SNB-19 CNS = tested on: SNB-19 CNS
UO-31 renal = tested on: UO-31 renal
OVCAR-8 ovarian = tested on: OVCAR-8 ovarian
NCI-H226 lung = tested on: NCI-H226 lung
TK-10 renal = tested on: TK-10 renal

SMILES: N#C/C(=C/c1cccc2ccccc12)C(=O)c1ccccc1
- TGI (ACHN renal): > 10 µM
- TGI (OVCAR-4 ovarian): > 100 µM
- TGI (KM12 colon): 43.2 µM
- TGI (LOX IMVI melanoma): 39.3 µM
- TGI (M19-MEL melanoma): 86.6 µM
- TGI (SN12C renal): 85.6 µM
- TGI (NCI-H23 lung): 32.2 µM
- TGI (NCI-H522 lung): 54.6 µM
- TGI (HL-60(TB) leukemia): 46.9 µM
- TGI (A549 NSCLC): > 10 µM
- TGI (KM20L2 colon): 37.1 µM
- TGI (SK-MEL-28 melanoma): 30 µM
- TGI (RPMI-8226 leukemia): 69.6 µM
- TGI (DMS 114 small cell lung): > 100 µM
- TGI (786-0 renal): 30.3 µM
- TGI (SF-295 CNS): 44.4 µM
- TGI (MOLT-4 leukemia): 38.2 µM
- TGI (HCC-2998 colon): 49.2 µM
- TGI (U251 CNS): 37.9 µM
- TGI (HCT-116 colon): 34.4 µM
- TGI (NCI-H460 lung): 78.2 µM
- TGI (HT29 colon): > 100 µM
- TGI (HOP-62 NSCLC): 41.1 µM
- TGI (IGROV1 ovarian): 54.8 µM
- TGI (HCT-15 colon): 39.3 µM
- TGI (M14 melanoma): 30.6 µM
- TGI (K-562 leukemia): > 10 µM
- TGI (UACC-257 melanoma): > 10 µM
- TGI (EKVX NSCLC): > 10 µM
- TGI (SF-539 CNS): 34.9 µM
- TGI (OVCAR-3 ovarian): > 100 µM
- TGI (A498 renal): 55.3 µM
- TGI (CCRF-CEM leukemia): 39 µM
- TGI (SK-OV-3 ovarian): > 100 µM
- TGI (SK-MEL-2 melanoma): 41.6 µM
- TGI (SR leukemia): 88.3 µM
- TGI (SNB-78 CNS): > 100 µM
- TGI (OVCAR-5 ovarian): 50.1 µM
- TGI (SK-MEL-5 melanoma): > 10 µM
- TGI (MALME-3M melanoma): 47.6 µM
- TGI (UACC-62 melanoma): 38.4 µM
- TGI (SW-620 colon): 32 µM
- TGI (XF 498 CNS): 39.3 µM
- TGI (CAKI-1 renal): > 100 µM
- TGI (SNB-19 CNS): 41.6 µM
- TGI (UO-31 renal): 35.9 µM
- TGI (OVCAR-8 ovarian): > 100 µM
- TGI (NCI-H226 lung): 47.9 µM
- TGI (TK-10 renal): > 100 µM
